Data on 26 compounds can be found in US20050014765A1, “Aryl-heteroaromatic products, compositions comprising them and use” (Aventis Pharma S.A., priority 2003, published 2005).

For test [1], the target named is T1, Tubulin purified from pig brains (Sus scrofa, UniProt P02550+P02554).
T1 construct: Tubulin is purified from pig brains according to published methods; from tissue; host or cells: pig brain
The test can be described thus: Assessment of the inhibition of tubulin polymerization (turbidimetry at 350 nm). It is filed as biochemical. The note with it: concentration which inhibits the rate of polymerization by 50%; tubulin 1 mg/ml, 37° C.; read-out: Inhibition of tubulin polymerization IC 50. Here is the method: Assessment of the Inhibition of Tubulin Polymerization
Tubulin is purified from pig brains according to published methods (Shelanski et al., 1973, Proc. Natl. Acad. Sci. USA, 70, 765-768. Weingarten et al., 1975, Proc. Natl. Acad. Sci. USA, 72, 1858-1862). Briefly, the brains are ground and centrifuged in an extraction buffer. The tubulin, present in the extract supernatant is subjected to two successive cycles of polymerization at 37° C. and depolymerization at 4° C., before being separated from the MAPs (Microtubule Associated Proteins) by chromatography on a phosphocellulose P11 column (Whatman). The tubulin thus isolated is more than 95% pure. It is stored in a buffer known as RB/2 30% glycerol, the composition of which is 50 mM MES-NaOH [2-(N-morpholino)ethanesulfonic acid], pH 6.8; 0.25 mM MgCl2; 0.5 mM EGTA; 30% (v/v) glycerol, 0.2 mM GTP (guanosine 5′-triphosphate).
The polymerization of the tubulin into microtubules is monitored by turbidimetry as follows: the tubulin is adjusted to a concentration of 10 μm (1 mg/ml) in the RB/2 30% glycerol buffer, to which are added 1 mM GTP and 6 mM MgCl2. The polymerization is initiated by increasing the temperature from 6° C. to 37° C. in a cuvette with a 1 cm optical pathlength, placed in a UVIKON 931 spectrophotometer (Kontron) equipped with a thermostatically-regulated cuvette holder. The increase in turbidity of the solution is monitored at 350 nm.
The products are dissolved at 10 mM in DMSO and added at variable concentrations (0.5 to 10 μm) to the tubulin solution before polymerization. The IC50 is defined as the concentration of the product which inhibits the rate of polymerization by 50%.

Test [2] has as its system HCT116 cells. The experiment in a line: Inhibition of proliferation of the HCT116 human colon tumor line ([14C]-thymidine incorporation). It is filed as cell-based. The note with it: HCT-116, 48 hours incubation at 37° C., read-out: Inhibition of HCT116 proliferation IC 50. Here is the method: Test for Determining the Inhibition of Proliferation of the HCT116 Human Colon Tumor Line
The proliferation of HCT116 cells is evaluated by mesuring the incorporation of [^14C]-thymidine in the following way. The HCT166 cells (from the ATCC) are cultured in a DMEM medium (Gibco) which contains 10% of fetal calf serum and antibiotics (1% penicillin, 1% streptomycin). To perform the proliferation test, the cells are seeded into 96-well cytostar microplates (Amersham) at the rate of 5000 cells per well. The [^14C]-thymidine (0.1 μCi/well) and the products to be evaluated are subsequently added. Variable concentrations of products up to 10 μM are used; the DMSO (solvent used to dissolve the products) should not exceed 0.5% in the medium. 48 hours after incubation at 37° C., the radioactivity incorporated into the cells is measured by counting the plate in a Tri-Lux counter (Wallac). The IC50 is defined as the concentration of product which reduces the radioactivity by 50% compared with an untreated control. A product with an IC50 of less than 10 μm is regarded as cytotoxic.
For orientation: Dividing cells build labelled thymidine or BrdU into new DNA.

pIC50: −log10 of the molar value. Counter-ions that a name gives are not always drawn.

T1 sequence (P02550 whole entry): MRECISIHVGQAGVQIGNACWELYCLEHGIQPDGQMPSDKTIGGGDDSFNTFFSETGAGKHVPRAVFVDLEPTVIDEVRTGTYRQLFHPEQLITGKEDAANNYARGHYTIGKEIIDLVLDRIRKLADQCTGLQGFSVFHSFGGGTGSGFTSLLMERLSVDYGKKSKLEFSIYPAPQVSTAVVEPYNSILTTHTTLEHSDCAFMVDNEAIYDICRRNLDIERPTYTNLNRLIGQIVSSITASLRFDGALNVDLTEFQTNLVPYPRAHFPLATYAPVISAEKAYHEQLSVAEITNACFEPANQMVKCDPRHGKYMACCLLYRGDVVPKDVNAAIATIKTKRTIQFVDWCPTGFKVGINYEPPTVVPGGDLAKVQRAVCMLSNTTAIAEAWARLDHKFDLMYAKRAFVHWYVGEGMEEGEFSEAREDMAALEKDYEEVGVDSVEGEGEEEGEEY
T1 sequence (P02554 whole entry): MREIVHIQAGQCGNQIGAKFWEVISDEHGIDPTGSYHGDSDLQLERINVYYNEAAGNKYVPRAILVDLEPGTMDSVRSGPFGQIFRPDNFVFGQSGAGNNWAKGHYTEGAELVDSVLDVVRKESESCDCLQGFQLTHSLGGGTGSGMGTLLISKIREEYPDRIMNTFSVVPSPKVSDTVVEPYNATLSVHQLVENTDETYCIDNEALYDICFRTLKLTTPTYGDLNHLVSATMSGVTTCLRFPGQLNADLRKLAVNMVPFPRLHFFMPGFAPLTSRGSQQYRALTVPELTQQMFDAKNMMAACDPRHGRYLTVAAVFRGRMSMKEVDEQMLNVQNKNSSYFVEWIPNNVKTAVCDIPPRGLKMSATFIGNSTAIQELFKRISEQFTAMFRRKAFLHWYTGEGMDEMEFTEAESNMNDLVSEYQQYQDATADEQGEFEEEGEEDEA

As for `N#Cc1cccc(N2CCN(C(=O)c3cncn3-c3ccccc3)CC2)c1` [Example 13, [4-(3-Cyanophenyl)piperazin-1-yl](1-phenyl-1H-imidazol-5-yl)methanone], the pIC50 is 5.54 in test [1] and 7.04 in test [2].
Regarding `N#Cc1cccc(N2CCN(C(=O)c3[nH]cnc3-c3ccccc3)CC2)c1` [Example 14, [4-(3-Cyanophenyl)piperazin-1-yl](4-phenyl-1H-imidazol-5-yl)methanone], the pIC50 was 5.92 in test [1] and 8.13 in test [2].
`O=C(c1c[nH]cc1-c1ccccc1)N1CCN(c2cccc(Cl)c2)CC1` [Example 15, [4-(3-Chlorophenyl)piperazin-1-yl](4-phenyl-1H-pyrrol-3-yl)methanone]: the pIC50 was 5.54 in test [1] and 6.14 in test [2].
For `COc1cc(OC)cc(N2CCN(C(=O)c3c[nH]cc3-c3ccccc3)CC2)c1` [Example 16, [4-(3,5-Dimethoxyphenyl)piperazin-1-yl](4-phenyl-1H-pyrrol-3-yl)methanone] the same measures were 5.62 and 8.07.
As to `NC(=O)c1cccc(N2CCN(C(=O)c3cncn3-c3ccccc3)CC2)c1` [Example 17, [4-(3-Carboxamidophenyl)piperazin-1-yl](1-phenyl-1H-imidazol-5-yl)methanone], the pIC50 in test [1] was 5.26; in test [2], 6.27.
The corresponding values for `COc1cc(OC)cc(N2CCN(C(=O)c3cn(C)cc3-c3ccccc3)CC2)c1` [Example 18, [4-(3,5-Dimethoxyphenyl)piperazin-1-yl](1-methyl-4-phenyl-1H-pyrrol-3-yl)methanone hydrochloride] are 6.01 and 8.42.
Turning to `COc1cc(OC)cc(N2CCN(C(=O)c3nc(S)[nH]c3-c3ccccc3)CC2)c1` [Example 20, [4-(3,5-Dimethoxyphenyl)piperazin-1-yl](2-mercapto-5-phenyl-1H-imidazol-4-yl)methanone], the pIC50 in test [1] is 6.15; in test [2] it was 7.93.
The corresponding values for `NC(=O)c1cccc(N2CCN(C(=O)c3[nH]cnc3-c3ccccc3)CC2)c1` [Example 22, [4-(3-Carboxamidophenyl)piperazin-1-yl](4-phenyl-1H-imidazol-5-yl)-methanone] are 5.96 and 6.72.
As to `COc1cc(OC)cc(N2CCN(C(=O)c3nc(SC)[nH]c3-c3ccccc3)CC2)c1` [Example 23, [4-(3,5-Dimethoxyphenyl)piperazin-1-yl](2-methylsulfanyl-5-phenyl-1H-imidazol-4-yl)methanone], the pIC50 in test [1] is 6.22; in test [2], 8.77.
Turning to `COc1cc(OC)cc(N2CCN(C(=O)c3nc(SC)n(C)c3-c3ccccc3)CC2)c1` [Example 24, [4-(3,5-Dimethoxyphenyl)piperazin-1-yl](N-methyl-2-methylsulfanyl-5-phenyl-1H-imidazol-4-yl)methanone], the pIC50 was 5.02 in test [1] and 6.94 in test [2].
As to `NC(=O)c1cccc(N2CCN(C(=O)c3cc[nH]c3-c3ccccc3)CC2)c1` [Example 25, [4-(3-Carboxamidophenyl)piperazin-1-yl](2-phenyl-1-H-pyrrol-3-yl)methanone], the pIC50 in test [1] is 5.02; in test [2], 6.53.
On to `O=C(c1cc[nH]c1-c1ccccc1)N1CCN(c2cccc(Cl)c2)CC1` [Example 26, [4-(3-Chlorophenyl)piperazin-1-yl](2-phenyl-1H-pyrrol-3-yl)methanone], for which the pIC50 in test [1] is 5.49; in test [2], 7.12.
As for `COc1cccc(N2CCN(C(=O)c3[nH]cnc3-c3ccccc3)CC2)c1` [Example 29, [4-(3-Methoxyphenyl)piperazin-1-yl](4-phenyl-1H-imidazol-5-yl)methanone], the pIC50 is 6.40 in test [1] and 8.52 in test [2].
Take `O=C(c1[nH]cnc1-c1ccccc1)N1CCN(c2cccc(OC(F)F)c2)CC1` [Example 30, [4-(3-Difluoromethoxyphenyl)piperazin-1-yl](5-phenyl-1H-imidazol-4-yl)methanone]: the pIC50 in test [1] is 6.10; in test [2] it was 8.19.
For the compound `COc1cc(OC)cc(N2CCN(C(=O)c3[nH]c([S+](C)[O-])nc3-c3ccccc3)CC2)c1` (stereo not shown) [Example 33, [4-(3,5-Dimethoxyphenyl)piperazin-1-yl](2-methanesulfinyl-5-phenyl-1H-imidazol-4-yl)methanone], the pIC50 in test [1] is 5.71; in test [2], 6.74.
For `COC(=O)CCn1cc(C(=O)N2CCN(c3cccc(Cl)c3)CC2)c(-c2ccccc2)c1` [Example 34, Methyl 3-{3-[4-(3-chlorophenyl)piperazin-1-ylcarbonyl]-4-phenylpyrrol-1-yl}-propionate] the same measures were 5.67 and 6.13.
On to `Cn1cc(C(=O)N2CCN(c3cccc(C(N)=O)c3)CC2)c(-c2ccccc2)c1` [Example 37, 3-[4-(1-Methyl-4-phenyl-1H-pyrrol-3-yl-carbonyl)piperazin-1-yl]benzamide], for which the figures for the pIC50 in test [1] and in test [2] were 6.14 and 7.83, respectively.
As for `COc1cc(OC)c(O)c(N2CCN(C(=O)c3[nH]c([S+](C)[O-])nc3-c3ccccc3)CC2)c1` (stereo not shown) [Example 38, [4-(2-Hydroxy-3,5-dimethoxyphenyl)piperazin-1-yl](2-methanesulfinyl-5-phenyl-1H-imidazol-4-yl)methanone], the pIC50 is 4.70 in test [1] and 5.64 in test [2].
In the case of `NC(=O)c1cccc(N2CCN(C(=O)c3[nH]ccc3-c3ccccc3)CC2)c1` [Example 39, 3-[4-(3-Phenyl-1H-pyrrol-2-ylcarbonyl)piperazin-1-yl]benzamide], the pIC50 was 4.91 in test [1] and 6.70 in test [2].
For the compound `COc1cc(OC)cc(N2CCN(C(=O)c3c(-c4ccccc4)ccn3C)CC2)c1` [Example 40, [4-(3,5-Dimethoxyphenyl)piperazin-1-yl](1-methyl-3-phenyl-1H-pyrrol-2-yl)-methanone hydrochloride], the results for the pIC50 in test [1] and in test [2] were 4.95 and 6.56, respectively.
Take `COc1cc(OC)cc(N2CCN(C(=O)c3cn(C(C)=O)cc3-c3ccccc3)CC2)c1` [Example 41, 1-{3-[4-(3,5-Dimethoxyphenyl)piperazin-1-yl-carbonyl]-4-phenylpyrrol-1-yl}-ethanone]: the pIC50 is 5.88 in test [1] and 6.91 in test [2].
For `COc1cc(OC)cc(N2CCN(C(=O)c3sc(N)nc3-c3ccccc3)CC2)c1` [Example 42, (2-Amino-4-phenylthiazol-5-yl)[4-(3,5-dimethoxyphenyl)piperazin-1-yl]-methanone] the same measures were 5.89 and 8.80.
Regarding `COc1cc(OC)cc(N2CCN(C(=O)c3[nH]c(C)nc3-c3ccccc3)CC2)c1` [Example 43, [4-(3,5-Dimethoxyphenyl)piperazin-1-yl](2-methyl-5-phenyl-3H-imidazol-4-yl)methanone], the pIC50 was 6.22 in test [1] and 8.15 in test [2].
`COc1cc(OC)cc(N2CCN(C(=O)c3cn(CCCC(=O)O)cc3-c3ccccc3)CC2)c1` [Example 46, 4-{3-[4-(3,5-Dimethoxyphenyl)piperazin-1-yl]carbonyl-4-phenyl-1H-pyrrol-1-yl}-butanoic acid]: the values for the pIC50 in test [1] and in test [2] were 5.36 and 5.20, respectively.
With `COc1cc(OC)cc(N2CCN(C(=O)c3cn(Cc4cccnc4)cc3-c3ccccc3)CC2)c1` [Example 48, [4-(3,5-Dimethoxyphenyl)piperazin-1-yl][1-(pyridin-3-yl)methyl-4-phenyl-1H-pyrrol-3-yl]methanone], the results for the pIC50 in test [1] and in test [2] were 6.12 and 7.29, respectively.
For `Cn1ccc(C(=O)N2CCN(c3cccc(C(N)=O)c3)CC2)c1-c1ccccc1` [Example 50, 3-[4-(1-Methyl-2-phenyl-1H-pyrrol-3-ylcarbonyl)piperazin-1-yl]benzamide], the pIC50 was 5.47 in test [1] and 6.27 in test [2].
